Residues, ends and D or L forms follow the SMILES beside them.
Target: T1, angiotensin converting enzyme (ACE, EC 3.4.15.1) (Oryctolagus cuniculus, UniProt P12822)
T1 sequence (P12822 34-1310): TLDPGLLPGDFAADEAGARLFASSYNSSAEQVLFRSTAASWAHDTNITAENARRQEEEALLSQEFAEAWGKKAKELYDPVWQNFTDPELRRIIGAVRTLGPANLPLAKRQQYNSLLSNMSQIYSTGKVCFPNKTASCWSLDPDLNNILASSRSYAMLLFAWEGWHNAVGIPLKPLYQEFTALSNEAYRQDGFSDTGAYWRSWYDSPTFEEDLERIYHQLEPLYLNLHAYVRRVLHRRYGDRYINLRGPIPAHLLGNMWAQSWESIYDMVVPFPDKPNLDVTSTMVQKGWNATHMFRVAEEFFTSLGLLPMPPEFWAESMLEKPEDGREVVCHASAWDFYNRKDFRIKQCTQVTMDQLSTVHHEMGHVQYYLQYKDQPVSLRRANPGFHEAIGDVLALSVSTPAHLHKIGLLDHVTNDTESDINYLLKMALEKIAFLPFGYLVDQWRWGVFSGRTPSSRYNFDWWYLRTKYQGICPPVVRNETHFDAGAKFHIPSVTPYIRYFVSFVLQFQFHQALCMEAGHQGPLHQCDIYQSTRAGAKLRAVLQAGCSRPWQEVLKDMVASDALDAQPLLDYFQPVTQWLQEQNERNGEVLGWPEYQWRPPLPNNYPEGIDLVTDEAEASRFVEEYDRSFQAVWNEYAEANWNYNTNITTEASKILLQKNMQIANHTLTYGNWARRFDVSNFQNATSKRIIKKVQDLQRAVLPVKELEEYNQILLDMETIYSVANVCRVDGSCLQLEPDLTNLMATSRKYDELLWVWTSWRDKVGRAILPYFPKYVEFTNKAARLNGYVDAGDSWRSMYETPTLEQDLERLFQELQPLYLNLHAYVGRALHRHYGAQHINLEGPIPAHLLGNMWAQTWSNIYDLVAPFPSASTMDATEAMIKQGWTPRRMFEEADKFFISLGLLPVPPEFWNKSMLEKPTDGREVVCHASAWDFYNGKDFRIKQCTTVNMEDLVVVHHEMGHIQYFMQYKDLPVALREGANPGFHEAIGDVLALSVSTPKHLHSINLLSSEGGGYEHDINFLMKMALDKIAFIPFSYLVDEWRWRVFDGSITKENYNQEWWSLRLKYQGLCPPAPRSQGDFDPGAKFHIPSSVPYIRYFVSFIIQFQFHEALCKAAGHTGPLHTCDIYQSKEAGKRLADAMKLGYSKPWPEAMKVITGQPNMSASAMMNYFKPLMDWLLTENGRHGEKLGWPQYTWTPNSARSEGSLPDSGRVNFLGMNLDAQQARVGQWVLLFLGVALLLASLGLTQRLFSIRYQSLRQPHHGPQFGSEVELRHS
Type: biochemical
Method: The inhibitory activity of the angiotensin converting enzyme (ACE) is measured in vitro according to the method of D. W. Cushman and H. S. Cheung (Spectrophotometric assay and properties of the angiotensin-converting enzyme of rabbit lung. Biochemical Pharmacology, 1971, 20: 1637-1648), later on modified by Y. K. Kim, S. Yoon, D. Y. Yu, B. Lönnerdal and B. H. Cheung (Novel angiotensin-I-converting enzyme inhibitory peptides derived from recombinant human αs1-casein expressed in Escherichia coli, Journal of Dairy Research 1999, 66, 431-439).
The substrate hippuryl histidyl leucine (HHL, Sigma Chemicals Co., St. Louis, Mo., USA) is dissolved in a 0.1 M borate buffer with 0.3 M NaCl pH 8.3 to obtain a final concentration of 5 mM. To 100 μl of substrate are added 40 μl of each of the samples whose ACEI activity it is wished to determine. The ACE enzyme (EC 3.4.15.1, Sigma) is added, dissolved in 50% glycerol and diluted 1/10 in bidistilled water at the moment of conducting the assay. The reaction is carried out at 37° C. for 30 minutes in a water-bath. The enzyme is deactivated by lowering the pH with 150 μl of 1 N HCl. The hippuric acid formed is extracted with 1000 μl of ethyl acetate. Following vortex stirring for 20 seconds, it is centrifuged at 4000 rpm for 10 minutes at room temperature. 750 μl of the organic phase are taken and evaporated by heating at 95° C. for 10 minutes. The hippuric acid residue is redissolved in 800 μl of bidistilled water and, following stirring for 20 seconds, the absorbency at 228 nm is measured in a Dur-70 spectrophotometer from Beckman Instruments, Inc., Fullerton, USA.
In order to calculate the percentage of ACEI activity, the following formula is used
The blank is used for correcting the background absorbency. This contains substrate, enzyme and 20 μl of bidistilled water in place of the sample, and the reaction is halted at zero time. The control implies a hundred percent of the enzymatic action on the substrate in the absence of inhibitors and contains 20 μl of water in place of the sample and is incubated the same time as the sample.
The results are presented as the IC50 (μM or μg/ml) or concentration at which 50% of the enzyme's activity is inhibited. The concentration of protein is determined by means of the bicinchonomic acid (BCA) assay (Pierce, Rockford, Ill., USA) using bovine seroalbumin as reference.

Q: Which “ACEI activity in vitro (in words)” value (peptides) does the source give for `CC[C@H](C)[C@H](NC(=O)[C@@H]1CCCN1C(=O)[C@H](Cc1ccc(O)cc1)NC(=O)[C@H](CCCNC(=N)N)NC(=O)[C@H](CCC(=O)O)NC(=O)[C@H](CCC(=O)O)NC(=O)[C@H](C)NC(=O)[C@@H](N)Cc1ccc(O)cc1)C(=O)N[C@@H](CC(C)C)C(=O)O` [SEQ. ID. N^o 6] (H-YAEERYPIL-OH; N-terminus and C-terminus assumed) here?
A: Its value is “potent ACEI activity”.

Q: What about the IC50 (read-out: ACEI activity IC50, synthetic peptides) of the same compound?
A: Its IC50 is 4.7 µM.

Source: patent US8227207B2, “Bioactive peptides derived from the proteins of egg white by means of enzymatic hydrolysis” (Consejo Superior de Investigaciones Cientifcas, priority 2004, dated 2012)
